Reference: US11000033B2, “Ketone or oxime compound, and herbicide” (NISSAN CHEMICAL CORPORATION, priority 2014, dated 2021)

How the values were obtained:
Type in all cases: in vivo
[1] = tested on: Echinochloa oryzacola Vasing.; assay: Test Example 2: herbicidal activity, application during weed generation in submerged conditions (symbol A); conditions: Table 23; application herbicide amount 320 g/ha; grade 0-5 by criteria of Test Example 1
Method in brief: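 Alluvial soil in pots was flooded to a 4 cm water depth and sown with a mix of the three weed species, then grown in a greenhouse at 25° C. to 30° C. At the one- to two-leaf stage, an emulsifiable formulation diluted in water to a set dose was applied to the water surface. Effects were scored visually 3 weeks later.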

[2] = tested on: Echinochloa crus-galli var. crus-galli; assay: Test Example 3: herbicidal effect by foliage application, Wagner pot (symbol H); conditions: application herbicide amount 320 g/ha
Method in brief: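 Weeds and rice were sown in alluvial soil under 0.1–0.5 cm of standing water and grown for 14 days in a 25–30 °C greenhouse. An emulsion of the compound, diluted in water to a set dose, was sprayed evenly onto the foliage. Effect was scored against fixed criteria 3 weeks after treatment.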

[3] = tested on: directly sowed rice plant; assay: Test Example 3: effect on crop by foliage application, Wagner pot (symbol b); conditions: application herbicide amount 320 g/ha
Method in brief: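 Greenhouse culture at 25–30 °C of seeded rice, Cyperus difformis, Leptochloa chinensis and Echinochloa crus-galli var. crus-galli, in alluvial soil held under 0.1–0.5 cm of water in a Wagner pot.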

Setaria viridis = assay: Test Example 4: herbicidal effect by soil treatment (symbol G); conditions: 320 g/ha
Method in brief: (§1)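 Seeds were sown in sterilized diluvial soil, covered with about 1.5 cm of soil, and the soil surface was sprayed with a water-diluted emulsion of the compound at a predetermined rate. Plants grew in a greenhouse at 25° C. to 30° C.; effects were scored visually 3 weeks after application.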

Lolium multiflorum Lam. = assay: Test Example 4: herbicidal effect by soil treatment (symbol K); conditions: 320 g/ha
Method in brief: as §1

corn = assay: Test Example 4: effect on crop by soil treatment (symbol c); conditions: 320 g/ha
Method in brief: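 Steps: fill box with sterilized diluvial soil; sow seed spot-like; cover with ~1.5 cm soil; grow in greenhouse (25° C. to 30° C.).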

soybean = assay: Test Example 4: effect on crop by soil treatment (symbol d); conditions: 320 g/ha
Method in brief: (§2)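 The test used sterilized diluvial soil. Seed was set down in spots and overlaid with about 1.5 cm of soil before growth in a greenhouse kept at 25° C. to 30° C.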

rapeseed = assay: Test Example 4: effect on crop by soil treatment (symbol g); conditions: 320 g/ha
Method in brief: as §2

Avena fatua = assay: Test Example 5: herbicidal effect by foliage application, plastic box (symbol I); conditions: 320 g/ha, 3 weeks after application
Method in brief: (§3)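 After sowing into sterilized diluvial soil and growing two weeks under glass at 25° C. to 30° C., seedlings receive a uniform foliar spray of diluted emulsion. Damage is judged visually three weeks on.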

Stellaria media = assay: Test Example 5: herbicidal effect by foliage application, plastic box (symbol P); conditions: 320 g/ha, 3 weeks after application
Method in brief: as §3

wheat = assay: Test Example 5: effect on crop by foliage application, plastic box (symbol e); conditions: 320 g/ha, 3 weeks after application
Method in brief: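 Seeds were sown in spots in sterilized diluvial soil held in a plastic box 21 cm × 13 cm × 7 cm deep, covered with about 1.5 cm of soil, and grown in a greenhouse at 25° C. to 30° C.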

| SMILES | Herbicidal effect grade, A: Echinochloa oryzacola Vasing. [1] | herbicidal effect on H (Echinochloa crus-galli var. crus-galli), grade 0-5 [2] | effect on crop b (directly sowed rice plant), grade 0-5 [3] | G: Setaria viridis, herbicidal effect grade (Setaria viridis) | K: Lolium multiflorum Lam., herbicidal effect grade (Lolium multiflorum Lam.) | c: corn, effect grade on crop (corn) | d: soybean, effect grade on crop (soybean) | g: rapeseed, effect grade on crop (rapeseed) | I: Avena fatua, herbicidal effect (criteria 0-5) (Avena fatua) | P: Stellaria media, herbicidal effect (criteria 0-5) (Stellaria media) | e: wheat, effect on crop (criteria 0-5) (wheat) | I: Avena fatua, herbicidal effect grade (Avena fatua) | P: Stellaria media, herbicidal effect grade (Stellaria media) | e: wheat, effect on crop grade (wheat) |
| --- | --- | --- | --- | --- | --- | --- | --- | --- | --- | --- | --- | --- | --- | --- |
| C=CCN(CC=C)C(=O)OC1=C(c2c(C)cc(C)cc2C)C(=O)C(CC(C)=NOC)C1 (stereo not drawn) [1-153] | 4 (Herbicidal ratio of 70% or higher and lower than 90%) | 5 (Herbicidal ratio of 90% or more (almost completely withered)) | 5 (Herbicidal ratio of 90% or more (almost completely withered)) | 1 (Herbicidal ratio of 5% or higher and lower than 20%) | 4 (Herbicidal ratio of 70% or higher and lower than 90%) | 0 (Herbicidal ratio of 5% or lower (almost no effect)) | 0 (Herbicidal ratio of 5% or lower (almost no effect)) | 0 (Herbicidal ratio of 5% or lower (almost no effect)) | 5 (Herbicidal ratio of 90% or more (almost completely withered)) | 0 (Herbicidal ratio of 5% or lower (almost no effect)) | 5 (Herbicidal ratio of 90% or more (almost completely withered)) | – | – | – |
| CON=C(C)CC1CC(OC(=O)c2ccccc2C(F)(F)F)=C(c2c(C)cc(C)cc2C)C1=O (stereo not drawn) [1-154] | 5 (Herbicidal ratio of 90% or more (almost completely withered)) | 5 (Herbicidal ratio of 90% or more (almost completely withered)) | 5 (Herbicidal ratio of 90% or more (almost completely withered)) | 5 (Herbicidal ratio of 90% or more (almost completely withered)) | 5 (Herbicidal ratio of 90% or more (almost completely withered)) | 0 (Herbicidal ratio of 5% or lower (almost no effect)) | 0 (Herbicidal ratio of 5% or lower (almost no effect)) | 4 (Herbicidal ratio of 70% or higher and lower than 90%) | 5 (Herbicidal ratio of 90% or more (almost completely withered)) | 2 (Herbicidal ratio of 20% or higher and lower than 40%) | 5 (Herbicidal ratio of 90% or more (almost completely withered)) | – | – | – |
| CON=C(C)CC1CC(OC(=O)c2ccccc2OC(F)(F)F)=C(c2c(C)cc(C)cc2C)C1=O (stereo not drawn) [1-155] | 5 (Herbicidal ratio of 90% or more (almost completely withered)) | 5 (Herbicidal ratio of 90% or more (almost completely withered)) | 5 (Herbicidal ratio of 90% or more (almost completely withered)) | 5 (Herbicidal ratio of 90% or more (almost completely withered)) | 5 (Herbicidal ratio of 90% or more (almost completely withered)) | 3 (Herbicidal ratio of 40% or higher and lower than 70%) | 0 (Herbicidal ratio of 5% or lower (almost no effect)) | 4 (Herbicidal ratio of 70% or higher and lower than 90%) | 5 (Herbicidal ratio of 90% or more (almost completely withered)) | 2 (Herbicidal ratio of 20% or higher and lower than 40%) | 5 (Herbicidal ratio of 90% or more (almost completely withered)) | – | – | – |
| CON=C(C)CC1CC(OC(=O)Cc2ccc(OC)cc2)=C(c2c(C)cc(C)cc2C)C1=O (stereo not drawn) [1-156] | 5 (Herbicidal ratio of 90% or more (almost completely withered)) | 5 (Herbicidal ratio of 90% or more (almost completely withered)) | 5 (Herbicidal ratio of 90% or more (almost completely withered)) | 5 (Herbicidal ratio of 90% or more (almost completely withered)) | 5 (Herbicidal ratio of 90% or more (almost completely withered)) | 1 (Herbicidal ratio of 5% or higher and lower than 20%) | 0 (Herbicidal ratio of 5% or lower (almost no effect)) | 4 (Herbicidal ratio of 70% or higher and lower than 90%) | – | – | – | 5 (Herbicidal ratio of 90% or more (almost completely withered)) | 3 (Herbicidal ratio of 40% or higher and lower than 70%) | 5 (Herbicidal ratio of 90% or more (almost completely withered)) |
| CON=C(C)CC1CC(OC(=O)N(C)c2ccccc2)=C(c2c(C)cc(C)cc2C)C1=O (stereo not drawn) [1-159] | 4 (Herbicidal ratio of 70% or higher and lower than 90%) | 4 (Herbicidal ratio of 70% or higher and lower than 90%) | 5 (Herbicidal ratio of 90% or more (almost completely withered)) | 3 (Herbicidal ratio of 40% or higher and lower than 70%) | 5 (Herbicidal ratio of 90% or more (almost completely withered)) | 0 (Herbicidal ratio of 5% or lower (almost no effect)) | 0 (Herbicidal ratio of 5% or lower (almost no effect)) | 0 (Herbicidal ratio of 5% or lower (almost no effect)) | – | – | – | 5 (Herbicidal ratio of 90% or more (almost completely withered)) | 0 (Herbicidal ratio of 5% or lower (almost no effect)) | 2 (Herbicidal ratio of 20% or higher and lower than 40%) |
| CON=C(C)CC1CC(OC(=O)c2c(Cl)nn(C)c2Cl)=C(c2c(C)cc(C)cc2C)C1=O (stereo not drawn) [1-160] | 5 (Herbicidal ratio of 90% or more (almost completely withered)) | 5 (Herbicidal ratio of 90% or more (almost completely withered)) | 5 (Herbicidal ratio of 90% or more (almost completely withered)) | 5 (Herbicidal ratio of 90% or more (almost completely withered)) | 5 (Herbicidal ratio of 90% or more (almost completely withered)) | 0 (Herbicidal ratio of 5% or lower (almost no effect)) | 0 (Herbicidal ratio of 5% or lower (almost no effect)) | 4 (Herbicidal ratio of 70% or higher and lower than 90%) | – | – | – | 5 (Herbicidal ratio of 90% or more (almost completely withered)) | 3 (Herbicidal ratio of 40% or higher and lower than 70%) | 5 (Herbicidal ratio of 90% or more (almost completely withered)) |
